From US20260256925A1, “INDAZOLE DERIVATIVES AS ESTROGEN RECEPTOR DEGRADERS” (REGENTS OF THE UNIVERSITY OF MICHIGAN, priority 2022, published 2026)

What was measured:
[1] = Cell growth assay, WST-8 (compounds B1-B126); assay type: cell-based; conditions: 96 h; T47D cell line, WST-8, 4 days; read-out: Cell growth inhibition in T47D cell line IC50
How it was run: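 Read-out is WST-8 absorbance at 450 nm (2.5 h, 37° C) as a fraction of vehicle control, from three separate repeats. Compound exposure lasted 4 days, starting one day after plating 1500 cells/well.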

ER = molecular target: T1, ER (Homo sapiens, UniProt P03372); experiment: In-cell western blot analysis, relative ER percentage (compounds B1-B126); assay type: cell-based; conditions: ER degradation, 16 hours, read-out: ICW DC50
T1 construct: endogenous in cells; probably T47D or MCF-7
T1 sequence (P03372 1-595): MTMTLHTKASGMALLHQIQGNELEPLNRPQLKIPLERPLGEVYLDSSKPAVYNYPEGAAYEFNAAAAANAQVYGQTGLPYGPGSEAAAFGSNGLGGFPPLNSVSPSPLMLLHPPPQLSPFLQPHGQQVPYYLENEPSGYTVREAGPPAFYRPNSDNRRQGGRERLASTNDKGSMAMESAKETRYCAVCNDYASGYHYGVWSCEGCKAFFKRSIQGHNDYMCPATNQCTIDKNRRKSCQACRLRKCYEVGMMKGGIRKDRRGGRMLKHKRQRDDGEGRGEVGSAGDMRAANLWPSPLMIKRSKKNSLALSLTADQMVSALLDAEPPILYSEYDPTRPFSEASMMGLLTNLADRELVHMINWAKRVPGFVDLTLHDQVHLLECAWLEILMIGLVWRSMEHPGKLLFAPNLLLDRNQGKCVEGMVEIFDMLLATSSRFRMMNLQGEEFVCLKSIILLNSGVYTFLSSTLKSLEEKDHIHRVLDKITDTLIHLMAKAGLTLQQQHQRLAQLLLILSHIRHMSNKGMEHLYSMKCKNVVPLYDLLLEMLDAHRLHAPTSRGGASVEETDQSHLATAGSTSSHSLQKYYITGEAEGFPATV
How it was run: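 Readout was a two-colour infrared in-cell western of formaldehyde-fixed cells after 16 h compound exposure at 0.5% DMSO, with 40,000 or 10,000 cells/well plated the previous night. Relative ER percentage compares treated wells against untreated/DMSO-treated wells taken as 100%.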

## C[C@@H]1Cc2c(ccc3[nH]ncc23)[C@@H](c2ccc(N3CCC(CN4CCC5(CC4)COc4c(ccc6c4CN([C@H]4CCC(=O)NC4=O)C6=O)O5)CC3)cn2)N1CC(F)(F)F [Compound B119, (S)-3-(1-((1-(6-((6S,8R)-8-methyl-7-(2,2,2-trifluoroethyl)-6,7,8,9-tetrahydro-3H-pyrazolo[4,3-f]isoquinolin-6-yl)pyridin-3-yl)piperidin-4-yl)mcthyl)-7′-oxo-7′,9′-dihydro-2′H,8′H-spiro[piperidine-4,3′-[1,4]dioxino[2,3-e]isoindol]-8′-yl)piperidine-2,6-dione]
[1]
  IC50: < 1 nM
ER
  DC50: 10 to 100 nM

## C[C@@H]1Cc2c(ccc3[nH]ncc23)[C@@H](c2c(F)cc(N3CCC(CN4CCN5c6ccc7c(c6N(C)C[C@@H]5C4)CN(C4CCC(=O)NC4=O)C7=O)CC3)cc2F)N1CC(F)F (stereo partly drawn) [Compound B30, 3-((S)-7-((1-(4-((6S,8R)-7-(2,2-difluoroethyl)-8-methyl-6,7,8,9-tetrahydro-3H-pyrazolo[4,3-f]isoquinolin-6-yl)-3,5-difluorophenyl)piperidin-4-yl)methyl)-4-methyl-1-oxo-3,4,5,5a,6,7,8,9-octahydropyrazino[1,2-a]pyrrolo[3,4-f]quinoxalin-2(1H)-yl)piperidine-2,6-dione]
[1]
  IC50: 1 to 10 nM
ER
  DC50: < 10 nM

## COc1c2c(cc3c1CN(C1CCC(=O)NC1=O)C3=O)CN(CC(=O)N1CC3(CCN(c4cc(F)c([C@@H]5c6ccc7[nH]ncc7c6C[C@@H](C)N5CC(F)F)c(F)c4)CC3)C1)C2 (stereo partly drawn) [Compound B73, 3-(6-(2-(7-(4-((6S,8R)-7-(2,2-difluoroethyl)-8-methyl-6,7,8,9-tetrahydro-3H-pyrazolo[4,3-f]isoquinolin-6-yl)-3,5-difluorophenyl)-2,7-diazaspiro[3.5]nonan-2-yl)-2-oxoethyl)-4-methoxy-1-oxo-3,5,6,7-tetrahydropyrrolo[3,4-f]isoindol-2(1H)-yl)piperidine-2,6-dione]
[1]
  IC50: < 1 nM
ER
  DC50: 10 to 100 nM

## COc1cc(N2CCC3(CC2)OCC(CN2CCC4(CC2)COc2c4ccc4c2CN(C2CCC(=O)NC2=O)C4=O)CO3)ccc1[C@@H]1c2ccc3[nH]ncc3c2C[C@@H](C)N1CC(F)F (stereo partly drawn) [Compound B117, 3-(1′-((9-(4-((6S,8R)-7-(2,2-difluoroethyl)-8-methyl-6,7,8,9-tetrahydro-3H-pyrazolo[4,3-f]isoquinolin-6-yl)-3-methoxyphenyl)-1,5-dioxa-9-azaspiro[5.5]undecan-3-yl)methyl)-6-oxo-6,8-dihydro-2H,7H-spiro[furo[2,3-e]isoindole-3,4′-piperidin]-7-yl)piperidine-2,6-dione]
[1]
  IC50: < 1 nM
ER
  DC50: < 10 nM

## C[C@H]1Cc2c(ccc3[nH]ncc23)[C@H](c2ccc(N3CC4(CCC(CN5CCN6c7ccc8c(c7OC[C@@H]6C5)CN([C@@H]5CCC(=O)NC5=O)C8=O)CC4)C3)cn2)N1CC(F)(F)F [Compound B124, (R)-3-((S)-7-((2-(6-((6R,8S)-8-methyl-7-(2,2,2-trifluoroethyl)-6,7,8,9-tetrahydro-3H-pyrazolo[4,3-f]isoquinolin-6-yl)pyridin-3-yl)-2-azaspiro[3.5]nonan-7-yl)methyl)-1-oxo-1,3,5,5a,6,7,8,9-octahydro-2H-pyrazino[1′,2′:4,5][1,4]oxazino[2,3-e]isoindol-2-yl)piperidine-2,6-dione]
[1]
  IC50: < 1 nM
ER
  DC50: < 10 nM

## C[C@@H]1Cc2c(ccc3[nH]ncc23)[C@@H](c2c(F)cc(NC3CC4(C3)CN(C(=O)CN3Cc5cc6c(cc5C3)C(=O)N(C3CCC(=O)NC3=O)C6=O)C4)cc2F)N1CC(F)F (stereo partly drawn) [Compound B44, 6-(2-(6-((4-((6S,8R)-7-(2,2-difluoroethyl)-8-methyl-6,7,8,9-tetrahydro-3H-pyrazolo[4,3-f]isoquinolin-6-yl)-3,5-difluorophenyl)amino)-2-azaspiro[3.3]heptan-2-yl)-2-oxoethyl)-2-(2,6-dioxopiperidin-3-yl)-6,7-dihydropyrrolo[3,4-f]isoindole-1,3(2H,5H)-dione]
[1]
  IC50: < 1 nM
ER
  DC50: < 10 nM

## C[C@@H]1Cc2c(ccc3[nH]ncc23)[C@@H](c2ccc(N3CCC4(CC3)CC(CN3CCN5c6ccc(C(=O)N(C)C7CCC(=O)NC7=O)nc6OC[C@H]5C3)C4)cn2)N1CC(F)(F)F (stereo partly drawn) [Compound B92, (4aR)-N-(2,6-dioxopiperidin-3-yl)-N-methyl-3-((7-(6-((6S,8R)-8-methyl-7-(2,2,2-trifluoroethyl)-6,7,8,9-tetrahydro-3H-pyrazolo[4,3-f]isoquinolin-6-yl)pyridin-3-yl)-7-azaspiro[3.5]nonan-2-yl)methyl)-1,2,3,4,4a,5-hexahydropyrazino[1,2-d]pyrido[2,3-b][1,4]oxazine-8-carboxamide]
[1]
  IC50: > 10 nM
ER
  DC50: > 100 nM

## COc1cc(N2CCC3(CC2)CC(CN2CCN4c5cc6c(cc5OC[C@@H]4C2)C(=O)N(C2CCC(=O)NC2=O)C6)CO3)ccc1[C@@H]1c2ccc3[nH]ncc3c2C[C@@H](C)N1CC(F)F (stereo partly drawn) [Compound B79, 3-((4aS)-3-((8-(4-((6S,8R)-7-(2,2-difluoroethyl)-8-methyl-6,7,8,9-tetrahydro-3H-pyrazolo[4,3-f]isoquinolin-6-yl)-3-methoxyphenyl)-1-oxa-8-azaspiro[4.5]decan-3-yl)methyl)-8-oxo-1,2,3,4,4a,5,8,10-octahydro-9H-pyrazino[1′,2′:4,5][1,4]oxazino[2,3-f]isoindol-9-yl)piperidine-2,6-dione]
[1]
  IC50: < 1 nM
ER
  DC50: < 10 nM

## COc1cc(N2CCC3(CC2)OCC(CN2CCN4c5cc6c(cc5OC[C@H]4C2)C(=O)N(C2CCC(=O)NC2=O)C6)CO3)ccc1[C@@H]1c2ccc3[nH]ncc3c2C[C@@H](C)N1CC(F)F (stereo partly drawn) [Compound B115, 3-((R)-3-((9-(4-((6S,8R)-7-(2,2-difluoroethyl)-8-methyl-6,7,8,9-tetrahydro-3H-pyrazolo[4,3-f]isoquinolin-6-yl)-3-mcthoxyphenyl)-1,5-dioxa-9-azaspiro[5.5]undecan-3-yl)methyl)-8-oxo-1,2,3,4,4a,5,8,10-octahydro-9H-pyrazino[1′,2′:4,5][1,4]oxazino[2,3-f]isoindol-9-yl)piperidine-2,6-dione]
[1]
  IC50: < 1 nM
ER
  DC50: < 10 nM

## C[C@@H]1Cc2c(ccc3[nH]ncc23)[C@@H](c2ccc(N3CCC4(CCN(CC(=O)N5Cc6cc7c(cc6C5)C(=O)N(C5CCC(=O)NC5=O)C7=O)CC4)CC3)cn2)N1CC(F)(F)F (stereo partly drawn) [Compound B48, 2-(2,6-dioxopiperidin-3-yl)-6-(2-(9-(6-((6S,8R)-8-methyl-7-(2,2,2-trifluoroethyl)-6,7,8,9-tetrahydro-3H-pyrazolo[4,3-f]isoquinolin-6-yl)pyridin-3-yl)-3,9-diazaspiro[5.5]undecan-3-yl)acetyl)-6,7-dihydropyrrolo[3,4-f]isoindole-1,3(2H,5H)-dione]
[1]
  IC50: > 10 nM
ER
  DC50: > 100 nM

## COc1cc(N2CCC3(CC2)CC(CN2CCN4c5ccc6c(c5OC[C@H]4C2)CN([C@H]2CCC(=O)NC2=O)C6=O)CO3)ccc1[C@@H]1c2ccc3[nH]ncc3c2C[C@@H](C)N1CC(F)F (stereo partly drawn) [Compound B81, (3S)-3-((5aR)-7-((8-(4-((6S,8R)-7-(2,2-difluoroethyl)-8-methyl-6,7,8,9-tetrahydro-3H-pyrazolo[4,3-f]isoquinolin-6-yl)-3-methoxyphenyl)-1-oxa-8-azaspiro[4.5]decan-3-yl)methyl)-1-oxo-1,3,5,5a,6,7,8,9-octahydro-2H-pyrazino[1′,2′:4,5][1,4]oxazino[2,3-e]isoindol-2-yl)piperidine-2,6-dione]
[1]
  IC50: < 1 nM
ER
  DC50: < 10 nM
